The text below walks through data of patent publication US11865176B2, “Compositions and methods of modulating anti-tumor immunity” (Dana-Farber Cancer Institute, Inc., priority 2016, dated 2024).

The structures appear in SMILES notation.

The test system of the test is PD-1-overexpressing Jurkat cells. As to the kind of experiment: Small molecule screen: IL2 secretion (AlphaLISA) from stimulated PD-1-overexpressing Jurkat cells. The test is classed as cell-based, human. Conditions: 3.3 μM compound; for Zscore_1 / Zscore_2: IL2 level, α-CD3/α-CD28/α-PD-1 beads; for Zscore_1: replicate 1; for Zscore_2: replicate 2; for Zscore_AVG: average of replicate Z scores. The protocol: PD-1-overexpressing Jurkat cells were plated at a concentration of 100,000 cells/well in a total volume of 80 μl. […] Dynabeads conjugated to α-CD3, α-CD28, and α-PD-1 antibodies were added in 20 for a final assay volume of 100 with a final compound concentration of 3.3 μM and an 8:1 bead:cell ratio. Beads were conjugated to α-CD3/α-CD28/control IgG and added to wells containing DMSO-treated cells as a positive control, while beads conjugated to α-CD3/α-CD28/α-PD1 were added to wells containing DMSO-treated cells as a negative control. Supernatants from each well were analyzed for IL2 levels by AlphaLISA (Perkin Elmers) according to the manufacturer's protocol. Average and standard deviation values were calculated from the PD-1 controls (DMSO-treated cells stimulated with α-CD3/α-CD28/α-PD-1 beads); hits were defined as compounds scoring at least 3 standard deviations from the mean of the controls.
In addition to known negative regulators of IL-2 production (e.g. glycogen synthase kinase-3α/β (GSK3α/β) (24,25)), this screen identified cyclin-dependent kinases 4 and 6 inhibitors (CDK4/6i) as top hits (Table 1).

`O=C1NC(=O)C(c2c[nH]c3ccccc23)=C1c1c[nH]c2ccccc12` [Bisindolylmaleimide IV] had a Zscore_1 of −2.073, a Zscore_2 of −2.336 and a Zscore_AVG of −2.205.
For `CN(C)CCCn1cc(C2=C(c3c[nH]c4ccccc34)C(=O)NC2=O)c2ccccc21` [Bisindolylmaleimide I], the Zscore_1 was −9.431, the Zscore_2 was −8.32 and the Zscore_AVG is recorded as −8.875.
The matching figures for `CN1C(=O)C(c2c[nH]c3ccccc23)=C(c2c[nH]c3ccccc23)C1=O` [Bisindolylmaleimide V]: −0.6214, 1.109 and 0.2438.
For `NC(=O)c1ccc(-c2nc(-c3ccc4c(c3)OCCO4)c(-c3ccccn3)[nH]2)cc1` [Casein Kinase I Inhibitor, D4476], in that order: −1.219, 1.296 and 0.03862.
`O=C(O)C=Cc1cc(Br)c(Br)c(Br)c1Br` [Casein Kinase II Inhibitor III, TBCA] returned a Zscore_1 of 1.017, a Zscore_2 of 1.548 and a Zscore_AVG of 1.282.
As for `Brc1c(Br)c(Br)c2n[nH]nc2c1Br` [Casein Kinase II Inhibitor I], the Zscore_1 is reported as 0.6337, the Zscore_2 was determined as 0.5348 and the Zscore_AVG was 0.5842.
With `CCN1/C(=C/C(C)=O)Sc2ccc(OC)cc21` [Cdc2-Like Kinase Inhibitor, TG003], the Zscore_1 was −1.367, the Zscore_2 is on record as −2.423 and the Zscore_AVG is −1.895.
Regarding `O=C1NCCc2[nH]c(-c3ccncc3)cc21` [Cdc7/Cdk9 Inhibitor], the Zscore_1 was −9.816, the Zscore_2 was −10.33 and the Zscore_AVG was −10.08.
The matching figures for `O=C1NC(=NCc2cccs2)S/C1=C\c1ccc2ncccc2c1` [Cdk1 Inhibitor IV, RO-3306]: −4.188, −2.228 and −3.208.
For `CCn1cnc2c(Nc3cccc(Cl)c3)nc(N[C@@H]3CCCC[C@@H]3N)nc21` [Cdk1 Inhibitor, CGP74514A], in that order: 1.595, −1.02 and 0.2878.
The matching figures for `O=C1Nc2ccccc2/C1=C\c1c(Cl)[nH]c2ccccc12` [Cdk1 Inhibitor]: −0.7783, −0.6137 and −0.696.
Regarding `Nc1nc(Nc2ccc(S(N)(=O)=O)cc2)nn1C(=S)Nc1c(F)cccc1F` [Cdk1/2 Inhibitor III], the Zscore_1 was −10.55, the Zscore_2 is recorded as −11.64 and the Zscore_AVG was −11.1.
The compound `Nc1[nH]nc2nc3ccccc3nc12` [Cdk1/5 Inhibitor] displayed a Zscore_1 of −2.414, a Zscore_2 of −4.695 and a Zscore_AVG of −3.555.
Compound `COc1ccc(CNc2nc(N(CCO)CCO)nc3c2ncn3C(C)C)cc1` [Cdk2 Inhibitor III] had a Zscore_1 of −2.414, a Zscore_2 of −4.745 and a Zscore_AVG of −3.58.
Regarding `NS(=O)(=O)c1ccc(N/N=C2\C(=O)Nc3ccc(Br)cc32)cc1` [Cdk2 Inhibitor II], the Zscore_1 is given as −0.2096, the Zscore_2 is given as −0.6424 and the Zscore_AVG is given as −0.426.
For `CCN(CC)C(=O)c1ccc(Nc2nc(OCC3CCCCC3)c3[nH]cnc3n2)cc1` [Cdk2 Inhibitor IV, NU6140], in that order: −4.843, −6.155 and −5.499.
Compound `Cc1nc(N)sc1-c1ccnc(Nc2cccc([N+](=O)[O-])c2)n1` [Cdk2/9 Inhibitor] showed a Zscore_1 of −10.43, a Zscore_2 of −10.59 and a Zscore_AVG of −10.51.
In turn, `COc1ccc(OC)c2c(=S)c3ccccc3[nH]c12` [Cdk4 Inhibitor II, 625987] yielded a Zscore_1 of 0.5748, a Zscore_2 of −1.274 and a Zscore_AVG of −0.3496.
For `Cc1ccc(NC2=CC(=O)c3sc(C)nc3C2=O)cc1` [Cdk4 Inhibitor III], in that order: −6.073, −8.107 and −7.09.
Consider `O=C1NC(=O)c2c1c1c3ccccc3[nH]c1c1[nH]c3cc(Br)ccc3c21` [Cdk4 Inhibitor], for which the Zscore_1 is reported as 7.007, the Zscore_2 is reported as 16.07 and the Zscore_AVG is given as 11.54.
The matching figures for `Nc1n[nH]c(N)c1N=Nc1ccc(O)cc1` [Cdk9 Inhibitor II]: −0.7951, 0.1385 and −0.3283.
Take `CC(C)c1nn(-c2c(Cl)cccc2Cl)c2nc(Cc3ccc(OCCO)cc3)[nH]c(=O)c12` [Cdk/Crk Inhibitor]: the Zscore_1 was −10.43, the Zscore_2 is −11.89 and the Zscore_AVG was −11.16.
`COc1ccc2c(c[n+](C)c3c4cc5c(cc4ccc23)OCO5)c1OC` [Chelerythrine Chloride] yielded a Zscore_1 of 0.1826, a Zscore_2 of 0.07537 and a Zscore_AVG of 0.129.
The matching figures for `NC(=O)c1ccc2nc(-c3ccc(Oc4ccc(Cl)cc4)cc3)[nH]c2c1` [Chk2 Inhibitor II]: 2.673, 1.942 and 2.307.
In turn, `CC(C)n1cnc2c(Nc3cccc(Cl)c3)nc(NCCO)nc21` [Compound 52] had a Zscore_1 of −1.412, a Zscore_2 of −0.2643 and a Zscore_AVG of −0.8381.
Compound `CCOc1cc2ncnc(Nc3cccc(Br)c3)c2cc1OCC` [Compound 56] showed a Zscore_1 of −1.072, a Zscore_2 of −2.222 and a Zscore_AVG of −1.647.
`O=c1cc(N2CCOCC2)nc2c3ccccc3ccn12` [Compound 401] returned a Zscore_1 of 2.829, a Zscore_2 of 15.49 and a Zscore_AVG of 9.162.
The matching figures for `CN(C)c1ccc(/C=C2\C(=O)Nc3ccccc32)cc1` [DMBI]: −0.2169, 0.4405 and 0.1118.
For `CC(=O)c1ccc(N2CCOCC2)cc1O` [DNA-PK Inhibitor III], in that order: 5.18, 6.23 and 5.705.
For `O=c1cc(N2CCOCC2)oc2c1ccc1ccccc12` [DNA-PK Inhibitor II], in that order: 0.06496, 0.1041 and 0.08452.
`O=C(c1ccccc1)c1ccc(N2CCOCC2)cc1O` [DNA-PK Inhibitor V] gave a Zscore_1 of −2.22, a Zscore_2 of −4.112 and a Zscore_AVG of −3.166.
`O=c1c2ccccc2[nH]c(=S)n1CCN1CCC(=C(c2ccc(F)cc2)c2ccc(F)cc2)CC1` [Diacylglycerol Kinase Inhibitor II] came in with a Zscore_1 of −0.9879, a Zscore_2 of 0.3398 and a Zscore_AVG of −0.324.
